Test results taken from article PMC3776780, “Dual p38/JNK Mitogen Activated Protein Kinase Inhibitors Prevent Ozone-Induced Airway Hyperreactivity in Guinea Pigs” (PLoS ONE, 2013).

Legend:
Assay in all cases: spectrophotometric coupled-enzyme kinase inhibition assay
Assay type in all cases: biochemical
[1] = target: PKA (Homo sapiens, UniProt P17612); details: read-out: Ki or IC50 PKA
Procedure: (§1) Affinity was measured using a kinase inhibition assay. Compounds were assayed for the inhibition of various kinases using a modification of a spectrophotometric coupled-enzyme assay. In this assay, a fixed concentration of activated kinase (10–40 nM) was incubated with various concentrations of a potential inhibitor dissolved in DMSO for 10 minutes at 30°C in a buffer containing 0.1 M HEPES, pH 7.5, containing 10 mM MgCl2, 2.5 mM phosphoenolpyruvate, 200 µM NADH, 2 mM DTT, 30 µg/mL pyruvate kinase, 10 µg/mL lactate dehydrogenase, and 200 µM–500 µM EGF receptor peptide. The EGF receptor peptide has the sequence […]. The reaction was initiated by the addition of ATP equal to the ATP Km of the kinase, and the assay plate is inserted into the spectrophotometer’s assay plate compartment that was maintained at 30°C. The decrease of absorbance at 340 nm was monitored as a function of time for 10 minutes. The rate data as a function of inhibitor concentration was either fit as an IC50 or to a competitive inhibition kinetic model to determine the compound Ki (see table 1).

[2] = target: SRC (Homo sapiens, UniProt P12931); details: read-out: Ki or IC50 SRC
Procedure: as §1

[3] = target: AKT3 (Homo sapiens, UniProt Q9Y243); details: read-out: Ki or IC50 AKT3
Procedure: as §1

[4] = target: PLK1 (Homo sapiens, UniProt P53350); details: read-out: Ki or IC50 PLK1
Procedure: as §1

[5] = target: cMET (Homo sapiens, UniProt P08581); details: read-out: Ki or IC50 cMET
Procedure: as §1

[6] = target: CDK2 (Homo sapiens, UniProt P24941); details: read-out: Ki or IC50 CDK2
Procedure: as §1

[7] = target: PIM1 (Homo sapiens, UniProt P11309); details: read-out: Ki or IC50 PIM1
Procedure: as §1

[8] = target: SYK (Homo sapiens, UniProt P43405); details: read-out: Ki or IC50 SYK
Procedure: as §1

[9] = target: T1, JAK3 (Homo sapiens, UniProt P52333); details: read-out: Ki or IC50 JAK3
T1 sequence (P52333 1-1124): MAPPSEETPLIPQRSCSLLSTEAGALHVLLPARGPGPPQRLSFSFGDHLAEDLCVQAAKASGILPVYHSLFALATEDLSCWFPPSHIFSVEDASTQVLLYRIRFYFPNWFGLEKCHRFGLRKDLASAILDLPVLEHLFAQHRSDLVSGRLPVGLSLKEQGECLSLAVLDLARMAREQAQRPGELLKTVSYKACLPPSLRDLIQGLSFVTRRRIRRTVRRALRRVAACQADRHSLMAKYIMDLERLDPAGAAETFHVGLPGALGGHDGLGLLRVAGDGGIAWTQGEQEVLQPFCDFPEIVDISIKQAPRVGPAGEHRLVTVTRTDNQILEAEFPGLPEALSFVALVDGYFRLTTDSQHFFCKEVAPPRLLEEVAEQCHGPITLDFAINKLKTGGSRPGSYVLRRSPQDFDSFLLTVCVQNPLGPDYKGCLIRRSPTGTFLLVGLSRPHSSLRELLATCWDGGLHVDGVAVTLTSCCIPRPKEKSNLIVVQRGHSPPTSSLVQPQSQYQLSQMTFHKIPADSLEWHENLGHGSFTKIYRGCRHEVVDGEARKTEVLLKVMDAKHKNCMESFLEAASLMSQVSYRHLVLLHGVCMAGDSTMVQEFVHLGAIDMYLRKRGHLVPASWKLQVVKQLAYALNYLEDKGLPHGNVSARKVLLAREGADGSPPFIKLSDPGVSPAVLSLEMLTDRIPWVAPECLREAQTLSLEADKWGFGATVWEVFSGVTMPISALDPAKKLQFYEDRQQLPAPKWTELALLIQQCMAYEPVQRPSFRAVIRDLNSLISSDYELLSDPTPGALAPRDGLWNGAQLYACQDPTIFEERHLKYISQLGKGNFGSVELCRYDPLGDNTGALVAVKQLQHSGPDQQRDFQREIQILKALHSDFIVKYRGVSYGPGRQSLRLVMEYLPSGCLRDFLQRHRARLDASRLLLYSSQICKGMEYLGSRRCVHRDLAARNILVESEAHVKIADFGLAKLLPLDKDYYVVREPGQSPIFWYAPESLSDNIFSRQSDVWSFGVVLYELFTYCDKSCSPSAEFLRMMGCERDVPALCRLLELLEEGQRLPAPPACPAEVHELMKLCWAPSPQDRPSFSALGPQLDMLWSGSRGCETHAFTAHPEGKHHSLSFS
Procedure: as §1

[10] = target: p38 (Homo sapiens, UniProt Q16539); details: ATP equal to Km, 30°C
Procedure: as §1

[11] = target: IRAK; details: read-out: Ki or IC50 IRAK
Procedure: as §1

[12] = target: JNK3 (Homo sapiens, UniProt P53779); details: ATP equal to Km, 30°C
Procedure: as §1

[13] = target: ERK2 (Homo sapiens, UniProt P28482); details: read-out: Ki or IC50 ERK2
Procedure: as §1

[14] = target: KDR (Homo sapiens, UniProt P35968); details: read-out: Ki or IC50 KDR
Procedure: as §1

Chain of cMET (P08581 25-1390): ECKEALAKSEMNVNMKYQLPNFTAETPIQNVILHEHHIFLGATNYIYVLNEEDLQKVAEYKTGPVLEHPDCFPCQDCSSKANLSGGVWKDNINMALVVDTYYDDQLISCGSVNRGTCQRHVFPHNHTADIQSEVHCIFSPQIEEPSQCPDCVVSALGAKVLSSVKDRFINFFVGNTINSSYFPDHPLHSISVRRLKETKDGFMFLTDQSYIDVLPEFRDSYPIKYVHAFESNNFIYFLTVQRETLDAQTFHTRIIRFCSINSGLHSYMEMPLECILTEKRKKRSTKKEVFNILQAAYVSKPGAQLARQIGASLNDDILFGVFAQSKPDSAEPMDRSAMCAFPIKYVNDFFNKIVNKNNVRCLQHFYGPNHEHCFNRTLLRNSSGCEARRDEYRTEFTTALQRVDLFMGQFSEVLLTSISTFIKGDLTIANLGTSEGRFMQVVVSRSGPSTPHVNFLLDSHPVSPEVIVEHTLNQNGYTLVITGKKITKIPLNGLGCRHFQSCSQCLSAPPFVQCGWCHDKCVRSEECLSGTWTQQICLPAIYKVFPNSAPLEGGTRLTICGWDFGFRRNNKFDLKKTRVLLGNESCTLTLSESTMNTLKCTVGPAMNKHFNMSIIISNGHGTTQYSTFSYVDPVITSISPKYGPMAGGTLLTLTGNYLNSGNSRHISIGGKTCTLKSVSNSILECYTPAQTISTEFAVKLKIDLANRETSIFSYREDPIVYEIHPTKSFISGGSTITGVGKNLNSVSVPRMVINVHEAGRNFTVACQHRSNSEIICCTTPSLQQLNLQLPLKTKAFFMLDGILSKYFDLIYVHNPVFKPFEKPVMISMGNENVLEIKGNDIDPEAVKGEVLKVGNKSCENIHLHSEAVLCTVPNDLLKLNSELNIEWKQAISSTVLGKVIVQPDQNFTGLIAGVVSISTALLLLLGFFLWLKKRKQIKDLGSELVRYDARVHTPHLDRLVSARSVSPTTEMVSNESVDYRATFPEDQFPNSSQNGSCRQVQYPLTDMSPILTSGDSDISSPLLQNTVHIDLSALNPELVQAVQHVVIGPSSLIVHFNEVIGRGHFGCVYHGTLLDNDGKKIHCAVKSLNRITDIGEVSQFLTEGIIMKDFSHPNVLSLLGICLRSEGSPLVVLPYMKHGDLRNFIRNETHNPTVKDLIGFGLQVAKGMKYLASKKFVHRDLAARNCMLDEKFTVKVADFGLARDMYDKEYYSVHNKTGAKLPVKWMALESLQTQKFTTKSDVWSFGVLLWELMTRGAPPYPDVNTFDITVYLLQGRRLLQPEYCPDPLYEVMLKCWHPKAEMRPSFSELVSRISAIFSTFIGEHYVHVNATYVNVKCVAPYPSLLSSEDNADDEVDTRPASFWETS
Chain of ERK2 (P28482 whole entry, species assumed): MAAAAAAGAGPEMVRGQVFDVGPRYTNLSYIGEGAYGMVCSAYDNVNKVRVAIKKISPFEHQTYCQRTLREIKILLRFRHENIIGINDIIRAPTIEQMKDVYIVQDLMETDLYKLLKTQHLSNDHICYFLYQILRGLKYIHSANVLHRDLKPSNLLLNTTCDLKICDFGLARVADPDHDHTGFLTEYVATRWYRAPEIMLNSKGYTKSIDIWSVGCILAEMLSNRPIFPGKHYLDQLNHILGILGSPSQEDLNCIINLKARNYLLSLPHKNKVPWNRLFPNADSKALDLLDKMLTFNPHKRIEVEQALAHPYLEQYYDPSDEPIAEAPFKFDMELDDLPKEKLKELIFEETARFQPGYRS
Chain of p38 (Q16539 whole entry): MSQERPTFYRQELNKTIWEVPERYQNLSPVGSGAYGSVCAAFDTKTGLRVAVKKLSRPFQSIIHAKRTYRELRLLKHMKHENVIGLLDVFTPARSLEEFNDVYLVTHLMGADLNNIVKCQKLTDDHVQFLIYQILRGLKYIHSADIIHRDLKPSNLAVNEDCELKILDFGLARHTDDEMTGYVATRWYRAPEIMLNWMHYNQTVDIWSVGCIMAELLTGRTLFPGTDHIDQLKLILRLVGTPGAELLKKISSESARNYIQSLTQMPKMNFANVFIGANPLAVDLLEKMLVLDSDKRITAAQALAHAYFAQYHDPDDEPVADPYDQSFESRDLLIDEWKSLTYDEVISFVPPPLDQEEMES
Chain of PIM1 (P11309 whole entry, species assumed): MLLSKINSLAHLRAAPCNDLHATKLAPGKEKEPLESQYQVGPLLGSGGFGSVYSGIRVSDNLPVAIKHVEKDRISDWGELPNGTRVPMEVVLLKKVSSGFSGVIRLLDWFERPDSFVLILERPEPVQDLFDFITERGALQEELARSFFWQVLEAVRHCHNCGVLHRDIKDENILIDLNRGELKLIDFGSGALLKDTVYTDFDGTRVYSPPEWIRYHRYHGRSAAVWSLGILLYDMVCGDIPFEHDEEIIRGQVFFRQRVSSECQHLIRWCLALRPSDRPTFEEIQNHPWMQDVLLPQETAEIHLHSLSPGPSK
Chain of KDR (P35968 20-1356, species assumed): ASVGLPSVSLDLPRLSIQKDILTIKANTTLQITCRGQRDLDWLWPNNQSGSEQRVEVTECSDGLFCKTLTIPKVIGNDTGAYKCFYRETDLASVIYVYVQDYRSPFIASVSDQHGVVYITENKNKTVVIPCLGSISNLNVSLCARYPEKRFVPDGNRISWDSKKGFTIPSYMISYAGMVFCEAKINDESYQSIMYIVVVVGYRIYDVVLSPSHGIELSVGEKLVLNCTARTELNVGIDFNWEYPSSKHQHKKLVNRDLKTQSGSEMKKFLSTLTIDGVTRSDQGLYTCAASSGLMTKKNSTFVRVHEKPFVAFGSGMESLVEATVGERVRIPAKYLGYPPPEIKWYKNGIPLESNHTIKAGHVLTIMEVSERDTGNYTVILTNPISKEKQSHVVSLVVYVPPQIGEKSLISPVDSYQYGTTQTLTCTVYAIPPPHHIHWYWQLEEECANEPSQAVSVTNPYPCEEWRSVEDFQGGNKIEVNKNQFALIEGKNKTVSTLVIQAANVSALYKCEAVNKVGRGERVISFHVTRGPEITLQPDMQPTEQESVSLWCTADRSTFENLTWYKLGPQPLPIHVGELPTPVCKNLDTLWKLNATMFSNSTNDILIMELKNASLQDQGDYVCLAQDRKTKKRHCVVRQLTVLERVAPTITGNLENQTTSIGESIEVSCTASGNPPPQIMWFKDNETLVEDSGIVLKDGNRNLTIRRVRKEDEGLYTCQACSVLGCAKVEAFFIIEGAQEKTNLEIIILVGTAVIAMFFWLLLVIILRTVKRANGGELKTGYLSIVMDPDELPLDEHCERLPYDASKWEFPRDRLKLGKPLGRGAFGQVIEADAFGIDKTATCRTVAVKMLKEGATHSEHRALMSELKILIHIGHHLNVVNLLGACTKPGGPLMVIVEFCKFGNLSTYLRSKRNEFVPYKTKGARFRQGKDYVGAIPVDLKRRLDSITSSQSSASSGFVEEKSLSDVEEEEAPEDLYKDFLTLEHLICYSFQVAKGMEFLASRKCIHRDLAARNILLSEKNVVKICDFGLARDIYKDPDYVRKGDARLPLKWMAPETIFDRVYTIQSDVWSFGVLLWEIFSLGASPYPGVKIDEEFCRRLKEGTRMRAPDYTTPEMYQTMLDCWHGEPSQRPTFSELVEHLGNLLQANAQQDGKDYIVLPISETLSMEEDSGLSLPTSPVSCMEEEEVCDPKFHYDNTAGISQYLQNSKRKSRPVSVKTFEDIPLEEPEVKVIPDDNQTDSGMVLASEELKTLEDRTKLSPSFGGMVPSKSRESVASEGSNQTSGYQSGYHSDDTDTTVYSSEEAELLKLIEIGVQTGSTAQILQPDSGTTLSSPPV
Chain of SRC (P12931 whole entry, species assumed): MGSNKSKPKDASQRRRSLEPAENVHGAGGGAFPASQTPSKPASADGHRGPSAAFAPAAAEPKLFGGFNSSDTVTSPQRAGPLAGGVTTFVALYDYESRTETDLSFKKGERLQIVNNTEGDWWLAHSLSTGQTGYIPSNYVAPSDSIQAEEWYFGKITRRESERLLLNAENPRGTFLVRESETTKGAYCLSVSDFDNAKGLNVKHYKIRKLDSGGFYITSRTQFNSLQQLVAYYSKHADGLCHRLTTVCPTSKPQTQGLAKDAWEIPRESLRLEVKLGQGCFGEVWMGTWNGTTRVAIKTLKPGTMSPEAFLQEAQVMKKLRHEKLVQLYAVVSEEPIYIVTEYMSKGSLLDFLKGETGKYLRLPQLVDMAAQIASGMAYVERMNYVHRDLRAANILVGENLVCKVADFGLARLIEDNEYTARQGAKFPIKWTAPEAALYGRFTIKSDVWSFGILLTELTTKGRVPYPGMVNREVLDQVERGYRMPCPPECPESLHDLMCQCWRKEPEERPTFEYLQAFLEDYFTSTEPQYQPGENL
Chain of JNK3 (P53779 whole entry, species assumed): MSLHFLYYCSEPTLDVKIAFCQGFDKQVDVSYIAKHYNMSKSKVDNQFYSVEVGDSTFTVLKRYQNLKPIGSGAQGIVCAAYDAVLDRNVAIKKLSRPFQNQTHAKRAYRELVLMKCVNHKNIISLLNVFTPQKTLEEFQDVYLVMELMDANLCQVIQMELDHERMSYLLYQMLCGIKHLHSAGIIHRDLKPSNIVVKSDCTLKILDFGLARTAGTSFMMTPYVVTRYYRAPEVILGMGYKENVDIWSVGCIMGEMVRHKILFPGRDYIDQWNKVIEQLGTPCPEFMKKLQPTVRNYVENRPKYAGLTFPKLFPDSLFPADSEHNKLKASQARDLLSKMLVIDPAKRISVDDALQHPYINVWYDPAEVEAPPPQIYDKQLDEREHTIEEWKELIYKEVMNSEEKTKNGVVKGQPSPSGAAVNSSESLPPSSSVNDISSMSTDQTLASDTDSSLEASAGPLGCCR

Which results are given for `OC1CCN(Cc2onc(-c3ccc(F)cc3)c2-c2ccnc(NC3CCCCC3)n2)CC1` [V-05-013]?
Ki [1]: > 1000 nM; Ki [2]: > 1000 nM; Ki [3]: > 1000 nM; Ki [4]: > 1000 nM; Ki [5]: > 1000 nM; Ki [6]: > 1000 nM; Ki [7]: > 1000 nM; Ki [8]: > 1000 nM; Ki [9]: > 1000 nM; Ki [10]: 13 nM; Ki [11]: > 1000 nM; Ki [12]: 5 nM; Ki [13]: > 1000 nM; Ki [14]: > 1000 nM

How did the Ki [1] turn out when `OC[C@@H]1CCCN1Cc1onc(-c2ccc(F)cc2)c1-c1ccnc(NC2CCCCC2)n1` [V-05-014] was run?
Its Ki is > 1000 nM.

What about the Ki [2] of the same molecule?
The Ki was > 1000 nM.

What about the Ki [3] of the same molecule?
Its Ki is > 1000 nM.

And the Ki [4]?
The Ki was > 1000 nM.

What about the Ki [5] of the same molecule?
The Ki was > 1000 nM.

What about the Ki [6] of the same molecule?
Its Ki is > 1000 nM.

And the Ki [7]?
Its Ki is > 1000 nM.

What about the Ki [8] of the same molecule?
Its Ki is > 1000 nM.

What about the Ki [9] of the same molecule?
Its Ki is > 1000 nM.

What about the Ki [10] of the same molecule?
The Ki was 15 nM.

And the Ki [11]?
The Ki was > 1000 nM.

What about the Ki [12] of the same molecule?
Its Ki is 10 nM.

What about the Ki [13] of the same molecule?
The Ki was > 1000 nM.

What about the Ki [14] of the same molecule?
The Ki was > 1000 nM.

What does the source list for `Fc1ccc(-c2noc(CN3CCCCC3)c2-c2ccnc(NC3CCCCC3)n2)cc1` [V-05-015]?
Ki [1]: > 1000 nM; Ki [2]: > 1000 nM; Ki [3]: > 1000 nM; Ki [4]: > 1000 nM; Ki [5]: > 1000 nM; Ki [6]: > 1000 nM; Ki [7]: > 1000 nM; Ki [8]: > 1000 nM; Ki [9]: > 1000 nM; IC50 ([10]; read-out: IC50 p38 (footnote: this one value is an IC50, not a Ki)): 8 nM; Ki [11]: > 1000 nM; Ki [12]: 8 nM; Ki [13]: > 1000 nM; Ki [14]: > 1000 nM
